For series [1] the following is noted: cited from earlier work.
For series [2] the following is noted: peripheral administration; in words; cited from earlier work.
A further series concerns amygdala activation. The conditions noted are these: 24 IU, but not lower (12 IU) or higher (48 IU) doses; in words; cited from earlier work.
The conditions of series [3]: cited from earlier work. The source holds these as a separate data set.
The subject of the next series is OXT receptors. The conditions noted are these: prolonged OXT treatment, in words, cited from earlier work.
The conditions of series [4]: in words; cited from earlier work.
The conditions of series [5]: intranasal; in words; cited from earlier work.
The conditions of series [6]: sc, mouse, marked [2], cited from earlier work.
The nature of series [7]: Dose escalation study in DIO rats. The class given is in vivo, male DIO Sprague Dawley rats. From the text:
Male DIO Sprague Dawley rats (n=4) were fed 60% HF diet (formula: D12492; Research Diets, Inc., New Brunswick, NJ, USA; 5.21 kcal/g) for 16 weeks prior to the start of the study. Rats were changed to being singly housed and allowed to acclimate for at least one week prior to the start of this study. Animals averaged 844.15 Z 99.95 g at baseline. Baseline measures of body weight, food intake, and water intake were taken for 6 days before drug administration began. Doses for the dose escalation study included 1, 2, 5, 10, 20, 50, and 100 nmol/kg. Body weight, food and water intake were assessed just prior to the start of the dark cycle. […] In certain embodiments, the greatest anorectic effect achieved with ASK1476 occurred at the 300 nmol/kg/d dose yielding a ~34% reduction in caloric intake while ASK2131 dosed at 2 nmol/kg/d yielded a ~55% reduction in caloric intake.

A short description of series [8]: Blood parameters after 22-day treatment of DIO rats. The format is in vivo, male Sprague Dawley rats. The conditions noted are these: 22 days sc, mean ± SEM, OXT n=4. From the text: (§1) Male Sprague Dawley rats were fed 60% HF diet (D12492; Research Diets, Inc; New Brunswick, NJ; 5.21 kcal/g) for 16 weeks prior to the start of the study. Rats were then singly house in BioDAQ cages (Research Diets, Inc.; New Brunswick, NJ) and allowed to acclimate to their new environment for 10 days. Baseline measures of body weight, food intake and water intake were taken for one week to balance the groups and create feeding pairs. Each group (n=6 animals/group) averaged 714.47±81.6 g at baseline (Table 3).
(§2) Effects of ASK2131 were compared to a vehicle-treated group, OXT-treated group, as well as a pair-fed control group. Three days of baseline measures were taken before subcutaneous treatment administration began on day 4 of the study. Assessments were made to body weight, food intake and water intake. ASK2131 was administered at 50 nmol/kg throughout the entire study period. […] OXT-treated animals were started at 50 nmol/kg dose for two days, followed by 150 nmol/kg, then 300 nmol/kg, until ending at 600 nmol/kg for the remainder of the study.
Cardiac puncture was used to collect blood for analysis 2 h post final injection. Commercially available enzyme-linked immunosorbent assays (ELISA) were used for quantitative assessment of leptin (cat. #EZRL-83K; MilliporeSigma, Burlington, MA, USA), insulin (cat. #EZRMI-13K; MilliporeSigma, Burlington, MA, USA), and adiponectin (cat. #EZRAPD-62K MilliporeSigma, Burlington, MA, USA). Serum samples were diluted 1:500 for the adiponectin ELISA using the sample diluent provided with the kit. All ELISAs were completed following the manufacturers recommendations. Levels of glucose, cholesterol (total, HDL, and calculated LDL), triglycerides, ALT, and AST were determined in the serum on a Modular P chemistry analyzer (Roche Diagnostics, Risch-Rotkreuz, Switzerland) by the University of Washington Nutrition and Obesity Research Center's Analytic Core (Seattle, WA, USA).

A short description of series [9]: 22-day long-term study in DIO rats (body weight, food and water intake). The format is in vivo, male Sprague Dawley rats.
Text: For studies utilizing a DIO rat model, male Sprague Dawley rats (CD-IGS rats, strain 001; approximately 4 weeks of age; 51-75 g) purchased from Charles River Laboratories (Wilmington, MA, USA). These rats were fed a diet of 60% calories from fat (Formula: D12492; Research Diets, Inc., New Brunswick, NJ, USA; 5.21 kcal/g) for 4.5 to 6 months prior to the start of the study to induce obesity. For studies utilizing lean rats, male Sprague Dawley rats (CD-IGS rats, strain 001; 226-250 g) purchased from Charles River Laboratories (Wilmington, MA, USA). All rats had ad libitum access to food and water and were kept on a 12 h light/12 h dark cycle. Animals were individually housed in a temperature (22±1° C.) and humidity (57±4%) controlled room. All body weight measurements were taken just prior to the start of the dark cycle.
as §1, §2

For series [10] the following is noted: iv, rat; marked [2]; cited from earlier work.
For series [11] the following is noted: in words; cited from earlier work. The source holds these as a separate data set.
Setting [12] is: ELISA, 2 h post final injection.

Like-named read-outs stand apart in the source and are kept apart here. Residues, ends and D or L forms follow the SMILES beside them.

As for `CC[C@H](C)[C@@H]1NC(=O)[C@H](Cc2ccc(O)cc2)NC(=O)[C@@H](N)CSSC[C@@H](C(=O)N2CCC[C@H]2C(=O)N[C@@H](CC(C)C)C(=O)NCC(N)=O)NC(=O)[C@H](CC(N)=O)NC(=O)[C@H](CCC(N)=O)NC1=O` [OXT], the “change in body weight” value in series [1] (after a single dose of 1000 μg (1000 nmol)) is reported as 0.01%. The “decrease in food intake” value in series [1] (single injection of 1000 μg (1000 nmol)) was 12%. Besides, the “food intake, energy expenditure, weight gain” value in series [2] is “reduces food intake, enhances energy expenditure, and prevents or reduces weight gain”. In addition, in the series with amygdala activation, the amygdala activation result is reported as “significant decrease in amygdala activation”. Moreover, the “weight loss through energy expenditure” value in series [3] (in words) is “elicits weight loss through increases in energy expenditure”. The “change in body weight” value in [3] (one month: two weeks at 0.2 mg/kg then two weeks at 0.4 mg/kg) is 3.3%. The “desensitization of the OXT receptors” value with OXT receptors (in vitro) is on record as “shown to promote desensitization of the OXT receptors in vitro”. The OXTR binding entry in the series with OXT receptors is given as “reductions of OXTR binding”. Further, in series [4], the blood-brain barrier passage entry is on record as “does not cross the blood-brain barrier”. In series [5], the “body weight in obese humans” value is listed as “shown to reduce body weight in obese humans” and the “dose response in human trials” value was “U-shaped response”. Besides, in [6], the T1/2 is 30 min, the time of peak concentration (Tmax) was 15 min and the “free Cmax” value is 191 nM. Also, the highest concentration (Cmax) in series [6] (total) is 216 nM. Besides, the “reduction in caloric intake, maximum effect” value in [7] (1200 nmol/kg/d) is reported as ~ 36%. For the same compound, the “LDL, calculated” value in series [8] (Calculated LDL = Cholesterol − (HDL + Triglycerides/5)) is recorded as 22 ± 2 mg/dL. In [8] (setting [12]), this compound had an Adiponectin of 60.8 ± 3.9 ng/mL, an Insulin of 7.2 ± 2.1 ng/mL and a Leptin of 54.9 ± 7.9 ng/mL. In addition, in [8] (serum 2 h post final injection), the ALT was found to be 40 ± 5 U/L, the AST was 128 ± 22 U/L, the Glucose was 203 ± 13 mg/dL and the HDL worked out at 25 ± 2 mg/dL. Besides, the Triglycerides in [8] (serum 2 h post final injection) stood at 145 ± 7 mg/dL. Further, the Cholesterol in [8] (serum 2 h post final injection, superscript b: p<0.01 vs vehicle) was 76 ± 3 mg/dL. The same compound displayed a Post-treatment body weight in series [9] (22 days sc, ASK2131 50 nmol/kg, OXT titrated 50 to 600 nmol/kg, mean ± SEM) of 719 ± 20 g. The “% change in body weight” value in series [9] (22 days sc, ASK2131 50 nmol/kg, OXT titrated 50 to 600 nmol/kg, mean ± SEM, superscripts b: p<0.01, c: p<0.001 vs vehicle, d: p<0.001 vs OXT) is on record as 0.1 ± 1 ^b %. Further, the “reduction in food intake compared to vehicle-treated group” value in [9] (OXT titrated to 600 nmol/kg, 95% CI 0.2550 to 40.59, p=0.0464, in words) was “did not exhibit a significant reduction in food intake”. For the same compound, in series [9] (end of treatment, OXT titrated to 600 nmol/kg), the “weight loss vs. vehicle” value worked out at 5%. Moreover, the “body weight, PMD vs vehicle” value in [9] (treatment day 9, after 8 days, OXT titrated, 95% CI −5.80 to −0.43%, p=0.014) is given as −3.12%. For the same compound, in [10], the CLplasma was 17.1 mL/min/kg, the T1/2 is 7.2 min and the volume of distribution (Vd) is reported as 0.085 L/kg.
For the compound `CCCCCCCCCCCCCCCC(=O)NCCOCCOCCOCCOCCOCCOCCOCCOCCC(=O)NCCCC[C@H](NC(=O)CNC(=O)[C@@H]1CSSC[C@H](N)C(=O)N[C@@H](Cc2ccc(O)cc2)C(=O)N[C@@H]([C@@H](C)CC)C(=O)N[C@@H](CCC(N)=O)C(=O)N[C@@H](CC(N)=O)C(=O)N1)C(=O)NCC(N)=O` [ASK1476] (HELM PEPTIDE1{C.Y.I.Q.N.C.G.K.G.[am]}|PEPTIDE2{[CCCCCCCCCCCCCCCC(=O)[*:2]].[O=C(CCOCCOCCOCCOCCOCCOCCOCCOCCN[*:1])[*:2]]}$PEPTIDE1,PEPTIDE2,8:R3-2:R2|PEPTIDE1,PEPTIDE1,1:R3-6:R3$$$V2.0), the “response in a prior study” value in series [11] is reported as “U-shaped response”. In [7] (300 nmol/kg/d), the “reduction in caloric intake, greatest anorectic effect” value is given as ~ 34%.

In general, Tmax refers to the time from dosing to the highest level. What is called Cmax is the highest concentration seen after dosing. What is called Vd is a proportionality between amount in the body and measured concentration, not a real space.

The values are drawn from patent US20260337229A1 (Seattle Children's Hospital (d/b/a Seattle Children's …, priority 2022, published 2026).
